Laboratory results from patent US20260130856A1, “LIPOSOME COMPOSITIONS FOR DELIVERY OF COMPOUNDS AND METHODS THEREOF” (NanoTech Pharma Inc., priority 2022, published 2026).

Assay: In vivo pharmacokinetics study of carfilzomib formulations, plasma carfilzomib by LC-MS
Settings: BALB/c nude, mouse, mice, intravenous via tail vein, 5.0 mg/kg
Description: The carfilzomib-loaded liposome was prepared based on the description in Example 17. In-vivo pharmacokinetics study was carried out in BALB/c nude mice. Carfilzomib drug solution (free drug) and liposomal carfilzomib were administered intravenously via the tail vein into the mice and the plasma concentration of carfilzomib of both formulations were monitored over time by LC-MS. The injection dose of both drug formulations was 5.0 mg/kg. After intravenous administration, blood was collected at pre-determined time points (3 mice per time point) and was placed into EDTA coated micro containers. The samples were then centrifuged to separate plasma. Plasma levels of carfilzomib were quantified by using LC-MS. PK parameters were then calculated from measured drug plasma concentrations over time.

CC(C)C[C@H](NC(=O)[C@H](CCc1ccccc1)NC(=O)CN1CCOCC1)C(=O)N[C@@H](Cc1ccccc1)C(=O)N[C@@H](CC(C)C)C(=O)[C@@]1(C)CO1 [Free carfilzomib, carfilzomib]
AUC(0-t): 486 ng·h/mL | clearance: 170 mL/min/kg | half-life: 19.2 min | Vd (read-out: Vdss): 5.36 L/kg
